Data on 3 compounds can be found in US8962684B2, “Antioxidant composition” (Shiseido Company, Ltd., priority 2009, dated 2015).

Series [1] has as its system human neonatal skin fibroblast cells (Cryo NHDF-Neo). The series can be described thus: Antioxidant effect on oxidative damages induced by hydrogen peroxide (AlamarBlue viable cell ratio). In kind it is cell-based. The following applies: for antioxidant effect on hydrogen peroxide: conclusion in words. Here is the method:
(§1) For the evaluation of an antioxidant effect on hydrogen peroxide, human neonatal skin fibroblast cells (trade name: Cryo NHDF-Neo, manufactured by Sankyo Junyaku Co., Ltd.) were inoculated to a 24-well plate to have 1×10^5 cells per well. The cells were then cultured for four hours in a medium for cell culture (trade name: D-MEM (1 g/L glucose), manufactured by Wako Pure Chemical Industries) supplemented with 10% bovine fetal serum (herein below, referred to as a “standard medium”) in a 5% CO2 and saturated water vapor atmosphere at 37° C. (degrees Celsius). For the evaluation of an antioxidant effect on AAPH, antibiotics (penicillin, streptomycin, and fungizone) were supplemented to the standard medium and the cells were cultured for one day.
(§2) Subsequently, the culture medium was switched to a medium for cell culture (trade name: D-MEM (1 g/L glucose), manufactured by Wako Pure Chemicals Industries) supplemented with 0.5% bovine fetal serum (herein below, referred to as “low-serum medium”) to which 0.01% or 0.05% carnosine, or 0.1 μM (micro-molar) or 10 μM (micro-molar) D- or L-aspartic acid had been added, and the cells were cultured for two days under atmosphere of 5% CO2 and saturated moisture at 37° C. (degrees Celsius). For the experiment for the evaluation of oxidative damages on AAPH, the culture medium was switched to the medium for cell culture to which 5 ppm or 100 ppm carnosine, or 10 μM (micro-molar) D- or L-aspartic acid had been further added, and the cells were cultured for two days. The low-serum medium described above to which neither carnosine nor aspartic acid had been added was employed as a negative control.
(§3) After culturing for two days, 1 mM or 4 mM hydrogen peroxide, or 50 mM or 100 mM AAPH was added to the medium for evaluating an antioxidant effect, and the antioxidant effect was evaluated for carnosine or aspartic acid. The low-serum medium described above to which neither hydrogen peroxide nor AAPH had been added was employed as a control for evaluation of toxicity of an antioxidant when no oxidant was added.
(§4) Two hours after the addition of hydrogen peroxide or AAPH, AlarmarBlue (trade name: Biosource, manufactured by Biosource International Inc.) was added to have final concentration of 10%. Two to three hours later, according to the methods by Ahmed S. A. et al. (J. Immunol. Method., 170, 211-224 (1994)) and the instructions provided by the manufacturer, the fluorescent intensity of the supernatant was measured with an excitation wavelength of 544 nm, and an emission wavelength of 590 nm.
On the technique in general: Resazurin is reduced to fluorescent resorufin, in cell work by metabolically active cells.

Series [2] has the same test system. The series can be described thus: Antioxidant effect on oxidative damages induced by AAPH (AlamarBlue viable cell ratio). In kind it is cell-based. The following applies: for antioxidant effect on AAPH: conclusion in words. How it is done:
as §1, §2, §3, §4

Setting [3] is: 1 mM hydrogen peroxide, test substance 0.1 μM.
Setting [4] is: 1 mM hydrogen peroxide, test substance 10 μM.
Setting [5] is: 4 mM hydrogen peroxide, test substance 0.1 μM.
Setting [6] is: 4 mM hydrogen peroxide, test substance 10 μM.
[7] abbreviates: without addition of an oxidant (toxicity control), test substance 0.1 μM.
Setting [8] is: without addition of an oxidant (toxicity control), test substance 10 μM.
The mark [9] stands for this setting: 100 mM AAPH, test substance 10 μM.
[10] abbreviates: without addition of the oxidant (toxicity control), test substance 10 μM.

Consider `N[C@H](CC(=O)O)C(=O)O` [D-aspartic acid], for which the “ratio of viable cells” value was 62% in series [1] (setting [3]); 63% in series [1] (setting [4]); 29% in series [1] (setting [5]); 34% in series [1] (setting [6]); 86% in series [1] (setting [7]); 97% in series [1] (setting [8]). Besides, the “ratio of viable cells” value in series [2] (setting [9]) came out at 96%; in series [2] (setting [10]), 102%. The “antioxidant effect on hydrogen peroxide” value in series [1] is recorded as “concentration-dependent antioxidant effect”. In addition, the “antioxidant effect on AAPH” value in series [2] is recorded as “more potent antioxidant effect on AAPH compared to L-aspartic acid”.
With `N[C@@H](CC(=O)O)C(=O)O` [L-aspartic acid], the “ratio of viable cells” value in series [1] (setting [3]) was found to be 62%; in series [1] (setting [4]), 62%; in series [1] (setting [5]) it was 33%; in series [1] (setting [6]), 32%; in series [1] (setting [7]), 88%; in series [1] (setting [8]), 97%. For the same compound, the “ratio of viable cells” value was determined as 69% in series [2] (setting [9]) and 80% in series [2] (setting [10]). For the same compound, the “antioxidant effect on hydrogen peroxide” value in series [1] is “not observed”. Further, in series [2], the “antioxidant effect on AAPH” value is reported as “antioxidant effect on AAPH only”.
For `NCCC(=O)N[C@@H](Cc1cnc[nH]1)C(=O)O` [carnosine, reference compound], the “ratio of viable cells” value in series [1] (1 mM hydrogen peroxide, test substance 0.01%) turned out to be 51%; in series [1] (1 mM hydrogen peroxide, test substance 0.05%), 53%; in series [1] (4 mM hydrogen peroxide, test substance 0.01%), 21%; in series [1] (4 mM hydrogen peroxide, test substance 0.05%), 45%; in series [1] (without addition of an oxidant (toxicity control), test substance 0.01%), 100%; in series [1] (without addition of an oxidant (toxicity control), test substance 0.05%), 97%. Moreover, the “ratio of viable cells” value in series [2] (100 mM AAPH, test substance 5 ppm) is on record as 60%; in series [2] (100 mM AAPH, test substance 100 ppm), 85%; in series [2] (without addition of an oxidant (toxicity control), test substance 5 ppm), 93%; in series [2] (without addition of an oxidant (toxicity control), test substance 100 ppm), 103%. In series [1], the “antioxidant effect on hydrogen peroxide” value is “confirmed”. Moreover, the “antioxidant effect on AAPH” value in series [2] is recorded as “confirmed”.
